Here are results for one molecule from paper PMC9571049 (Molecules, 2022).

The EC50 is the concentration needed to bring the measured effect to its halfway point. In general, IC50 refers to the concentration at which inhibition is half-maximal. A low value points to greater potency.

The subject of data set [1] is A/Goose/Guangdong/SH7/2013 (H5N1). Kind of data set: microbe, parasite or virus in culture. The class given is cell-based. Particulars: Influenza A virus, H5N1, CEF, read-out: EC50 towards influenza virus H5N1.
Data set [2] has as its system A/Goose/Jiangsu/1306/2014 (H5N8). Kind of data set: microbe, parasite or virus in culture. It is filed as cell-based. Particulars: Influenza A virus, H5N8, CEF, read-out: EC50 towards influenza virus H5N8.
Data set [3] can be described thus: in vitro. The note with it: chicken.
Data set [4] has as its target H1N1 NA (A/PuertoRico/8/1934) (Influenza A virus, UniProt P03468). The experiment in a line: biochemical.
For data set [5], the system named is Kunming mice. The note with it: mouse, in vivo.
The test system of data set [6] is A/PR/8/34 (H1N1). Kind of data set: microbe, parasite or virus in culture. It is filed as cell-based. Particulars: Influenza A virus, MDCK, read-out: EC50 towards influenza virus H1N1.
The target in data set [7] is H5N1 NA (A/Goose/Guangdong/SH7/2013) (Influenza A virus, UniProt V5P6N1). It is filed as biochemical.
The nature of data set [8]: in vitro. The note with it: dog.
The test system of data set [9] is A/Wisconsin/67/05 (H3N2). The experiment in a line: microbe, parasite or virus in culture. The class given is cell-based. Particulars: Influenza A virus, H3N2, MDCK, read-out: EC50 towards influenza virus H3N2.

Turning to `CCC(CC)O[C@@H]1C=C(C(=O)O)C[C@H](NCc2ccc(OCc3cccc(B(O)O)c3)cc2)[C@H]1NC(C)=O` [Compound 2c, (3R,4R,5S)-4-acetamido-5-((4-((3-boronobenzyl)oxy)benzyl)amino)-3-(pentan-3-yloxy)cyclohex-1-ene-1-carboxylic acid], the EC50 in data set [1] amounted to 0.69 ± 0.091 µM; in data set [2] it was 1.57 ± 0.21 µM; in data set [6], 0.03 ± 0.03 µM; in [9], 11.1 ± 1.15 µM. Also, the CC50 in [3] was 143 ± 9.56 µM; in data set [8] it was above 250 µM. The molecule also returned a 50% inhibitory concentration (IC50) in [4] of 0.06 ± 0.007 µM. Further, the “behavior abnormalities (lethargy, clonic convulsions, anorexia, ruffled fur)” value in data set [5] is listed as “no significant behavior abnormalities”. Also, in data set [5], the body weight result is recorded as “increased gradually”. In addition, the death entry in data set [5] is recorded as “no death occurred”. Also, the acute toxicity result in data set [5] (1000 mg/kg) is listed as “no acute toxicity”. In addition, in data set [7], the “fold lower potency than OSC against H5N1 in the enzymatic assay” value came to 3.9 fold.
